Test results from patent US10441597B2, “Ciclesonide for the treatment of airway disease in horses” (Boehringer Ingelheim Vetmedica GmbH, priority 2012, dated 2019).
Like-named read-outs stand apart in the source and are kept apart here.

Legend:
[1] = when taken orally; cited from earlier work
RAO horses [2] = assay: Moldy hay challenge study in RAO horses: clinical score (breathing effort score, weighted clinical score); format: in vivo, horse; conditions: dexamethasone 0.066 mg/kg per os once daily
Excerpt: (§1) The commercially available […]® is used in the study.

[3] = test system: segmented neutrophils and lymphocytes; assay: Moldy hay challenge study in RAO horses: segmented neutrophil and lymphocyte counts; format: in vivo, horse; conditions: for Lymphocytes count after administration / Segmented neutrophil count after administration: dexamethasone 0.066 mg/kg per os once daily
Method: as §1
The segmented neutrophil counts and the lymphocyte counts are determined in the studies above: ciclesonide treatment versus dexamethasone treatment.

RAO horses [4] = assay: Moldy hay challenge study in RAO horses: lung function variables (transpulmonary pressure, lung resistance, lung elastance); format: in vivo, horse; conditions: dexamethasone 0.066 mg/kg per os once daily, after 14 days
Excerpt: as §1

cortisol levels [5] = conditions: humans; after aerosol administration/inhalation; cited from earlier work
cortisol levels [6] = conditions: horses; after aerosol administration; cited from earlier work

| Lymphocytes count after administration ([3]; 1st ciclesonide study) | Segmented neutrophil count after administration ([3]; 1st ciclesonide study) | Lymphocytes count after administration ([3]; 2nd ciclesonide study) | Segmented neutrophil count after administration ([3]; 2nd ciclesonide study) | Neutrophilia and lymphopenia ([3]; after treatment with dexamethasone, 1st and 2nd ciclesonide studies (Table 2)) | SMILES | Potency relative to prednisone [1] | Potency relative to the naturally occurring hormone cortisol [1] | Breathing effort score (RAO horses [2]; 1st ciclesonide study, any measured time point) | Weighted clinical score compared to pretreatment values (RAO horses [2]; 2nd ciclesonide study, after 14 days, p=0.0001 to p<0.0001) | Clinical score compared to pretreatment values (RAO horses [2]; Budesonide study, after 7 and 14 days, p=0.002 to p<0.0001) | All lung function variables compared to pretreatment values (RAO horses [4]; 1st ciclesonide study, p<0.0001) | All lung function variables compared to pretreatment values (RAO horses [4]; 2nd ciclesonide study, p=0.0009 to p<0.0001) | All lung function variables compared to pretreatment values (RAO horses [4]; Budesonide study, p≤0.0001) | Measured cortisol levels (cortisol levels [5]) | Measured cortisol levels (cortisol levels [6]) |
| --- | --- | --- | --- | --- | --- | --- | --- | --- | --- | --- | --- | --- | --- | --- | --- |
| decreased | increased | decreased | increased | commonly observed | C[C@@H]1C[C@H]2[C@@H]3CCC4=CC(=O)C=C[C@]4(C)[C@@]3(F)[C@@H](O)C[C@]2(C)[C@@]1(O)C(=O)CO [dexamethasone] | 7 times | 27 times | no significant changes | significantly reduced | significantly reduced | significantly reduced | significantly reduced | significantly reduced |  |  |
|  |  |  |  |  | C[C@@H]1C[C@H]2[C@@H]3C[C@H](F)C4=CC(=O)C=C[C@]4(C)[C@@]3(F)[C@@H](O)C[C@]2(C)[C@@]1(O)C(=O)SCF [fluticasone] |  |  |  |  |  |  |  |  | significant suppression | significant suppression |
